For assay [1], the target named is T1, porcine brain α/β-tubulin (Sus scrofa, UniProt P02550+P02554).
T1 construct: α/β-Tubulin was purified from porcine brain; from tissue; host or cells: porcine brain
Put plainly: In vitro MT polymerization assay (glutamate, paclitaxel or Tau stimulated). It counts as biochemical. Particulars: absence of γ-tubulin; absorbance at 350 nm, 37 °C. On the procedure: For glutamate-stimulated MT polymerization, 1 mg ml^−1 porcine brain α/β-tubulin was mixed with glutamate (final concentration 1 M) and GTP (final concentration 1 mM) in RB buffer on ice. For paclitaxel-stimulated MT polymerization, 1 mg ml^−1 porcine brain α/β-tubulin was mixed with paclitaxel (final concentration 10 μM) and GTP (final concentration 1 mM) in RB buffer on ice. For recombinant Tau protein-stimulated MT polymerization, 1 mg ml^−1 α/β-tubulin purified from porcine brain and Tau protein were mixed with GTP (final concentration 1 mM) in RB buffer on ice. For γ-TuSC-stimulated MT polymerization, γ-TuSC was mixed with GTP (final concentration 1 mM). One of the compounds and α/β-tubulin were then added. Samples were transferred into cuvettes. Tubulin polymerization was monitored using the absorbance at 350 nm at 37 °C using a thermostatic spectrophotometer (Beckman Coulter).

Assay [2] has as its system HeLa cells. The assay is described as follows: Spindle length of MG132-arrested metaphase cells. It counts as cell-based, human. Particulars: 30 μM, 2 h in the presence of MG132, HeLa. On the procedure: Exponentially growing HeLa cells were treated with 30 μM of gatastatin for 9 h. Cells were fixed with cold MeOH (−20 °C). Immunostaining was performed as described above using anti-α-tubulin (1:250 dilution, Santa Cruz, Cat# sc-32293) and anti-pericentrin (1:250 dilution, Abcam, Cat# ab4448) antibodies. After staining with Alexa^488-conjugated anti-mouse IgG (1:2,000 dilution, Invitrogen, Cat#A11001) and Alexa^568-conjugated anti-rabbit IgG (1:2,000 dilution, Invitrogen, Cat#A11011), cells were washed four times with PBS and mounted with PBS containing 0.1 μg ml^−1 DAPI. Spindle structure was observed under a Leica LAS AF 6000 fluorescence microscope (Leica Microsystems). Images of 41 sections at 0.251-μm intervals were collected. The position of the two pericentrin signals of mitotic cells was analysed using the ImageJ software, and then their distance was calculated.
For analysis of the length of the bipolar spindle in MG132-treated cells, HeLa cells were arrested at prometaphase with 10 μM of STLC for 15 h, followed by STLC removal by washing the cells with the medium three times to remove STLC. […]
Immunostaining was performed as described above using anti-α-tubulin (1:250 dilution, Santa Cruz, Cat# sc-32293) and anti-pericentrin (1:250 dilution, Abcam, Cat# ab4448) antibodies. Spindle structure was observed under a Leica LAS AF 6000 fluorescence microscope (Leica Microsystems). […]

Assay [3] has as its target T2, α/β-tubulin (Sus scrofa, UniProt P02550+P02554).
T2 construct: α/β-Tubulin was purified from porcine brain; from tissue; host or cells: porcine brain
Put plainly: MT dynamics in vitro by TIRF microscopy of single MTs. Particulars: 30 μM, 5 μM tubulin, GMPCPP seeds. It counts as biochemical, porcine. How it is done: Purified α/β-tubulin was labelled with tetramethylrhodamine Succinimidyl Ester (C-1171, Life Technologies), Alexa Fluor 647 NHS Ester (A-20106, Life Technologies) or NHS-LC-biotin (21336, Life Technologies) as described. Briefly, α/β-tubulin was polymerized to form MTs. Then, the MTs were centrifuged, resuspended in labelling buffer containing NHS-conjugated dye or biotin. After the labelling reaction, two cycles of polymerization and depolymerization were performed to obtain active α/β-tubulin.
GMPCPP MT seeds were prepared by copolymerization of non-labelled tubulin, tetramethylrhodamine-labelled tubulin and biotin-labelled tubulin with 0.2 mM GMPCPP to yield the rhodamine and biotin labelling ratio 2% and 3%, respectively. GMPCPP was prepared enzymatically from GMPCP (M3170, Sigma-Aldrich) and nucleotide diphosphate kinase (N0379, Sigma-Aldrich)[35]. The glass chambers for observation were prepared as follows. […] The images of MTs were observed under total internal reflection fluorescence microscopy (IX81, Olympus) with a × 100 objective lens (UPlanSApo, numerical aperture (NA) 1.40, Olympus) and recorded at the frame rate of two frames per second using iXon3 EM CCD camera (Andor). […]

Each structure is given as a SMILES string.

T2 sequence (P02550 whole entry): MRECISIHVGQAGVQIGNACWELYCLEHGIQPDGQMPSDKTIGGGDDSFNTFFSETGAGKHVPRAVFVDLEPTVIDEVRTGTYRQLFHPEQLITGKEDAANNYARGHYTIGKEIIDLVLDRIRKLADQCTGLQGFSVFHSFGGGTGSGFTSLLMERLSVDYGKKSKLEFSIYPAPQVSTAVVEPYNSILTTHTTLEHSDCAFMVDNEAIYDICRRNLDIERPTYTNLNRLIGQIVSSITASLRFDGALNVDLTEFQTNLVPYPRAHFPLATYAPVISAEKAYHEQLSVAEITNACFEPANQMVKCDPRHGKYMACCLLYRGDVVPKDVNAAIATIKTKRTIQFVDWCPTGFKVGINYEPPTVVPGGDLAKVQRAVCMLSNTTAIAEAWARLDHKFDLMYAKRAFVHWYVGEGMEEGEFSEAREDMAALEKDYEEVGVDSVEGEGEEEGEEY
T2 sequence (P02554 whole entry): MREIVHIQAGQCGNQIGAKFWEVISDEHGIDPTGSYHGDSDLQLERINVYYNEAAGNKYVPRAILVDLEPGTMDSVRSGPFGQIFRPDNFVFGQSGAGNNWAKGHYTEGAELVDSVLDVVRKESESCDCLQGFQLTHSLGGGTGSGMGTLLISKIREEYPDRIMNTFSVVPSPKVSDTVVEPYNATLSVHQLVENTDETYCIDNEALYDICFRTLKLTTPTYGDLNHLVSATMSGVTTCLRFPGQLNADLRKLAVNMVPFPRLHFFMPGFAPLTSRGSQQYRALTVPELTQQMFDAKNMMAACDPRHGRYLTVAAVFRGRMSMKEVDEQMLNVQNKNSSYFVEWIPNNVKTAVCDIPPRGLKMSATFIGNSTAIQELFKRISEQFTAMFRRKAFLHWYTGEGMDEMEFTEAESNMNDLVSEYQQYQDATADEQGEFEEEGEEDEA
T1 sequence (P02550 whole entry): as the sequence (P02550 whole entry) above
T1 sequence (P02554 whole entry): as the sequence (P02554 whole entry) above

In the case of `COc1cc2c(=O)c(-c3cc(OC)c4c(c3OC)OCO4)coc2cc1OCc1ccccc1` [Gatastatin, O^7-demethylbenzyl AG1], the “Effect on MT polymerization in vitro induced by glutamate, paclitaxel or recombinant Tau protein” value in assay [1] is “failed to impair MT polymerization in vitro”. In assay [2], the “Reduction of the length of the metaphase spindle compared with the control” value came out at 22%. Besides, in assay [3], the “Effect on MT growth velocity (TIRF analysis of single MTs)” value is given as “did not affect MT growth velocity”.

The values are drawn from paper PMC4640066 (Nature Communications, 2015).
